From patent publication US20090068150A1, “LACTIC ACID BACTERIA CULTURE OF MUNG BEAN AND THE PREPARATION METHOD OF THE SAME, AND THE COSMETIC COMPOSITION COMPRISING THE SAME” (Doosan Corporation, priority 2005, published 2009)

Legend:
skin = conditions: applied to the skin; cited from earlier work
CD-1 mouse = test: Inflammation (skin stimulus) alleviating effect on TPA-induced ear inflammation; assay type: in vivo
Protocol: In order to examine the inflammation (skin stimulus) alleviating effect of the lactic acid bacteria culture of mung bean containing the mung bean extract and GABA, which was obtained in the embodiment 2, a following test was conducted according to a method used by Sheu et al. (The Journal of Investigative Dermatology, 118, pp 94-101, 2002).
First, CD-1 mouse (male & female, 6-8 weeks, Charles River, USA) were used as test objects, and as stimulus material, 10 μl of TPA (12-O-tetradecanonylphorbol-13-acetate) 0.03% (wt/vol. in acetone) solution was applied to inside and outside of both ears of the test animals. Due to the treatment material, the ear was thickened and there occurred an inflammatory reaction. After that, as a positive control group, clofibrate (1 mM) and Wy14643 (1 mM) which are agonists of PPAR CL (Sheu et al., The Journal of Investigative Dermatology, 118, pp 94-101, 2002), and as a test material, the lactic acid bacteria culture of mung bean in the embodiment 2 were applied to the both surfaces of the ears in an amount of […], respectively, at 45 minutes and 4 hours after the inflammation induction.

In the case of `Cc1cccc(Nc2cc(Cl)nc(SCC(=O)O)n2)c1C` [WY14643], the “skin inflammation due to stimulus materials after application to the skin” value (skin) is listed as “the inflammation due to stimulus materials is decreased”, the “ear swelling vs control group treated with TPA only (FIG. 4)” value (CD-1 mouse; TPA + WY14643 (1 mM), applied 45 minutes and 4 hours after induction) is listed as “the swelling was decreased” and the “inflammation alleviation, H&E dyed tissue slide (FIG. 5)” value (CD-1 mouse; positive controls 1 mM (group C Wy14643, group B clofibrate), vs TPA only) is listed as “the inflammation was also alleviated”.
